Assay results as given in publication PMC2838726 (Molecular cancer therapeutics, 2010).

Columns and labels:
Safety, adverse events = format: in vivo, human; settings: of 11 patients
[1] = erlotinib 150 mg daily with sorafenib; cycle 1 days +15, 16, 22, 29
[2] = phase I trial of sorafenib plus gefitinib; cited from earlier work
[3] = system: RAF signal transduction capacity (MEK1/2 phosphorylation) in monocytes; assay: MEK1/2 pShift assay; format: cell-based, human; settings: patient 5, one sample, after 7 days of sorafenib (25.9% before sorafenib)
incurable solid tumor = assay: Tumor response; format: in vivo, human; settings: per patient
[4] = Sorafenib plasma pharmacokinetics in patients, with and without erlotinib; format: in vivo, human; settings: for Cmax / Tmax / AUC: human, plasma, oral

mean trough erlotinib concentration (Css,min) [1]	SMILES	patients needing at least 1 dose delay (Safety, adverse events)	patients with doses delivered in full throughout the study (Safety, adverse events) [patients]	patients with doses reduced (Safety, adverse events) [patients]	patients with drug discontinued (Safety, adverse events) [patients]	change of gefitinib Cmax and AUC in the presence of sorafenib [2]	additional monocytes shifted to the upper gate with IL3 versus vehicle (pShift) [3] [%]	TTP (incurable solid tumor) [days]	differences in PK variables of sorafenib in the presence or absence of erlotinib ([4]; day −2 vs day +15, Wilcoxon signed rank test)	Cmax [4] [ng/mL]	Tmax [4] [h]	AUC ([4]; 150 mg) [ng·h/mL]	AUC ([4]; 400 mg) [ng·h/mL]	Cmax ([4]; 400 mg bid) [ng/mL]	Tmax ([4]; 400 mg bid) [h]
around 500 ng/ml	C#Cc1cccc(Nc2ncnc3cc(OCCOC)c(OCCOC)cc23)c1 [erlotinib]	7 patients	6	2	3	–	–	–	–	–	–	–	–	–	–
–	COc1cc2ncnc(Nc3ccc(F)c(Cl)c3)c2cc1OCCCN1CCOCC1 [gefitinib]	–	–	–	–	decrease	–	–	–	–	–	–	–	–	–
–	CNC(=O)c1cc(Oc2ccc(NC(=O)Nc3ccc(Cl)c(C(F)(F)F)c3)cc2)ccn1 [sorafenib]	Nine	4	7	–	–	0.7	15	No statistically significant differences	8600	4	53200	70900	8600	4.2
